Experiments:
endogenous AR = target: T1, endogenous AR (Mus musculus, UniProt P19091); assay: In vivo AR degradation in LABC muscle of C57Bl/6 mice (mouse AR ELISA), PK/PD
T1 construct: from tissue; host or cells: mouse LABC muscle (C57Bl/6 and hAR100Q mice); quadriceps (hAR100Q mice)
T1 sequence (P19091 1-899): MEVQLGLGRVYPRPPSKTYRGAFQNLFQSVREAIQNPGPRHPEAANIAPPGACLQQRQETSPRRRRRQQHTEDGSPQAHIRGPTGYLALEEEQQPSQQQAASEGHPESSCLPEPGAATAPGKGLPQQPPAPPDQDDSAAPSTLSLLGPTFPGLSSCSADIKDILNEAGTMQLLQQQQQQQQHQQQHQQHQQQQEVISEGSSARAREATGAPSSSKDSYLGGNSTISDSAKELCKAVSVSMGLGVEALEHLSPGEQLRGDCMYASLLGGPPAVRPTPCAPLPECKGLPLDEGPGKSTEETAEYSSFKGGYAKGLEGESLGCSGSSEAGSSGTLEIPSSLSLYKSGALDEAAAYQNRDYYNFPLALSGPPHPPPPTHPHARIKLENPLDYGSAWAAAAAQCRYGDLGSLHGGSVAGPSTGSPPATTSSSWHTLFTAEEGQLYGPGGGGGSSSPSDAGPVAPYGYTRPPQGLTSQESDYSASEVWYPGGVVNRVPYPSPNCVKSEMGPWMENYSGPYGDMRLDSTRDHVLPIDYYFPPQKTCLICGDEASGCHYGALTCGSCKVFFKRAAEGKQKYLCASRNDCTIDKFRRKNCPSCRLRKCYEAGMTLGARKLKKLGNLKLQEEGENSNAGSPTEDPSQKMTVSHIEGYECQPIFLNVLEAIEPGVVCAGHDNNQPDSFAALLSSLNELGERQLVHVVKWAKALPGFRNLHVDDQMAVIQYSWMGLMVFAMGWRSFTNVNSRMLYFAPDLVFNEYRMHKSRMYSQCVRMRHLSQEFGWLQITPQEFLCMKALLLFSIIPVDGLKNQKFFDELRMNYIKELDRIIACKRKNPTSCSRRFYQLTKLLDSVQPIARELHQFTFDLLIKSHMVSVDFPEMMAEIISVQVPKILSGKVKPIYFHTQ
Experimental: Using six- to eight-week-old C57Bl/6 male mice, chow and water were provided ad libitum. Compounds were administered by oral gavage at the indicated dose using 5% dimethyl sulfoxide (DMSO), 95% (2% Tween 80, PEG 400) as the vehicle. Mice were euthanized by using Isoflurane inhalation (2-4% induction) followed by decapitation 24 hours post dose unless otherwise indicated. The levator ani/bulbocavernosus (LABC) muscle was dissected and immediately snap frozen and stored at −80° C. prior to analysis. Compound exposure was measured in serum and muscle lysates.
Anti-androgen receptor rabbit polyclonal antibody, clone PG-21 (Millipore; 06-680), was diluted in BupH carbonate-bicarbonate buffer (Thermo; 28382) to a concentration of 2 μg/mL and coated onto 96-well ELISA plates by incubating 50 μL per well overnight at 37° C. Plates were washed 4× with tris-buffered saline (TBS) buffer containing 0.1% Tween-20 (TBS-0.1% T) and blocked with 3% bovine serum albumin in TBS-T for 3 hours at room temperature (200 μL per well). AR peptide standard (Creative Biomart; Cat. No. AR-9788H) and samples were diluted in 1% bovine serum albumin (BSA)/TBS-0.05% T. After the blocking period, plates were washed as above, and 50 μL of standard and samples were added. Plates were incubated overnight at 4° C. with shaking. Following the incubation period, the plates were allowed to acclimate to room temperature with shaking for 1 hour. The detection antibody (anti-AR antibody, clone EPR1535 (abcam; ab194196)), conjugated to horse radish peroxidase (HRP), was diluted 1:15000 in 1% BSA/TBS-0.05% T and co-incubated with the samples by adding 50 μL to each well and shaking for 2 hours at room temperature. Plates were washed as above. Chemiluminescent substrate (ELISABright; Advansta; K-16025) was added to the plates (100 μL per well).
In vivo degradation of endogenous AR was evaluated for 95 compounds in murine levator ani/bulbocavernosus (LABC) muscle using a 30 mg/kg PO dose (see Example 1). The observed AR degradation for these 95 compounds ranged from 0-85% of AR in mouse LABC.

[1] = Free fraction in mouse plasma; format: in vitro ADME

CC(C)N(CC1CCN(c2ncc(C(=O)N[C@H]3C(C)(C)[C@H](Oc4ccc(C#N)c(Cl)c4)C3(C)C)cn2)CC1)[C@H]1C[C@H](Oc2ccc3c(c2)C(=O)N(C2CCC(=O)NC2=O)C3=O)C1 (stereo partly shown) [Compound A, N-((1r,3r)-3-(3-chloro-4-cyanophenoxy)-2,2,4,4-tetramethylcyclobutyl)-2-(4-((((1r,3r)-3-((2-(2,6-dioxopiperidin-3-yl)-1,3-dioxoisoindolin-5-yl)oxy)cyclobutyl)(isopropyl)amino)methyl)piperidin-1-yl)pyrimidine-5-carboxamide]
time for AR levels in LABC muscle to return to normal post administration (endogenous AR; 30 mg/kg, once per day (QD) for 3 days): about 3 days | time for AR to return to basal levels in LABC muscle (endogenous AR; mouse LABC muscle): 48 to 72 h | dose that achieves AR degradation of ~50% (endogenous AR; mouse muscle): About 10 mg/kg | fraction unbound [1]: 0.0044
